# Reference: patent US20240415914A1, “Water Dispersible Cannabinoid Compositions” (priority 2021, published 2024)
# Where two headings read alike, the source gives them in different places.
# Columns and labels:
# [1] = assay type: physicochemical; conditions: stored at room temperature (21-25° C.)
# Procedure: At each time period, 0.05 g of powder was dissolved in 10 ml-15 of ethanol, diluted to fall within the analytical range, and injected into the LCMSMS for analysis.
# [2] = Stability of cannabinoid and Vitamin E components of Beverage 2 (AB Red) stored at 8° C. and 21-25° C., LCMSMS over 570 days; conditions: 8° C.
# Procedure: The LCMSMS was calibrated for 0-50 ng/ml cannabinoids with the same resin material used in the preparation of the concentrates. At each time period, 100 μml of beverage was diluted with 10 ml of methanol and injected into the LCMSMS for analysis.
structure (smiles),measurement,setting,value
Cc1c(C)c2c(c(C)c1OC(=O)CCC(=O)O)CC[C@@](C)(CCC[C@H](C)CCC[C@H](C)CCCC(C)C)O2 [α-Tocopheryl succinate],Stability in Powder Concentrate (content by LCMSMS),[1]; day 0,1.82 mg/g powder
same,Stability in Powder Concentrate (content by LCMSMS),[1]; day 1,1.81 mg/g powder
same,Stability in Powder Concentrate (content by LCMSMS),[1]; day 2,1.81 mg/g powder
same,Stability in Powder Concentrate (content by LCMSMS),[1]; day 3,1.81 mg/g powder
same,Stability in Powder Concentrate (content by LCMSMS),[1]; day 5,1.83 mg/g powder
same,Stability in Powder Concentrate (content by LCMSMS),[1]; day 8,1.90 mg/g powder
same,Stability in Powder Concentrate (content by LCMSMS),[1]; day 9,1.89 mg/g powder
same,Stability in Powder Concentrate (content by LCMSMS),[1]; day 10,1.87 mg/g powder
same,Stability in Powder Concentrate (content by LCMSMS),[1]; day 11,1.89 mg/g powder
same,Stability in Powder Concentrate (content by LCMSMS),[1]; day 12,1.87 mg/g powder
same,Stability in Powder Concentrate (content by LCMSMS),[1]; day 15,1.87 mg/g powder
same,Stability in Powder Concentrate (content by LCMSMS),[1]; day 16,1.83 mg/g powder
same,Stability in Powder Concentrate (content by LCMSMS),[1]; day 17,1.88 mg/g powder
same,Stability in Powder Concentrate (content by LCMSMS),[1]; day 18,1.77 mg/g powder
same,Stability in Powder Concentrate (content by LCMSMS),[1]; day 19,1.85 mg/g powder
same,Stability in Powder Concentrate (content by LCMSMS),[1]; day 22,1.78 mg/g powder
same,Stability in Powder Concentrate (content by LCMSMS),[1]; day 23,1.80 mg/g powder
same,Stability in Powder Concentrate (content by LCMSMS),[1]; day 24,1.90 mg/g powder
same,Stability in Powder Concentrate (content by LCMSMS),[1]; day 25,1.90 mg/g powder
same,Stability in Powder Concentrate (content by LCMSMS),[1]; day 26,1.76 mg/g powder
same,Stability in Powder Concentrate (content by LCMSMS),[1]; day 29,1.87 mg/g powder
same,Stability in Powder Concentrate (content by LCMSMS),[1]; day 30,1.80 mg/g powder
same,Stability in Powder Concentrate (content by LCMSMS),[1]; day 60,1.77 mg/g powder
same,Stability in Powder Concentrate (content by LCMSMS),[1]; day 90,1.83 mg/g powder
same,Stability in Powder Concentrate (content by LCMSMS),[1]; day 120,1.83 mg/g powder
same,Stability in Powder Concentrate (content by LCMSMS),[1]; day 150,1.89 mg/g powder
same,Stability in Powder Concentrate (content by LCMSMS),[1]; day 180,1.77 mg/g powder
same,Stability in Powder Concentrate (content by LCMSMS),[1]; day 210,1.80 mg/g powder
same,Stability in Powder Concentrate (content by LCMSMS),[1]; day 240,1.84 mg/g powder
same,Stability in Powder Concentrate (content by LCMSMS),[1]; day 270,1.87 mg/g powder
same,Stability in Powder Concentrate (content by LCMSMS),[1]; day 300,1.84 mg/g powder
same,Stability in Powder Concentrate (content by LCMSMS),[1]; day 330,1.83 mg/g powder
same,Stability in Powder Concentrate (content by LCMSMS),[1]; day 360,1.79 mg/g powder
same,Stability in Powder Concentrate (content by LCMSMS),[1]; day 390,1.87 mg/g powder
same,Stability in Powder Concentrate (content by LCMSMS),[1]; day 420,1.82 mg/g powder
same,Stability in Powder Concentrate (content by LCMSMS),[1]; day 450,1.80 mg/g powder
same,Stability in Powder Concentrate (content by LCMSMS),[1]; day 480,1.76 mg/g powder
same,Stability in Powder Concentrate (content by LCMSMS),[1]; day 510,1.76 mg/g powder
same,Stability in Powder Concentrate (content by LCMSMS),[1]; day 540,1.80 mg/g powder
same,Stability in Powder Concentrate (content by LCMSMS),[1]; day 570,1.77 mg/g powder
same,Stability of Vitamin Es in AB Red,[2]; 0 days,12.5 µg/mL
same,Stability of Vitamin Es in AB Red,[2]; 1 days,11.7 µg/mL
same,Stability of Vitamin Es in AB Red,[2]; 2 days,11.7 µg/mL
same,Stability of Vitamin Es in AB Red,[2]; 3 days,11.7 µg/mL
same,Stability of Vitamin Es in AB Red,[2]; 5 days,11.5 µg/mL
same,Stability of Vitamin Es in AB Red,[2]; 8 days,12.6 µg/mL
same,Stability of Vitamin Es in AB Red,[2]; 9 days,11.8 µg/mL
same,Stability of Vitamin Es in AB Red,[2]; 10 days,12.6 µg/mL
same,Stability of Vitamin Es in AB Red,[2]; 11 days,12.1 µg/mL
same,Stability of Vitamin Es in AB Red,[2]; 12 days,12.7 µg/mL
same,Stability of Vitamin Es in AB Red,[2]; 15 days,12.5 µg/mL
same,Stability of Vitamin Es in AB Red,[2]; 16 days,11.5 µg/mL
same,Stability of Vitamin Es in AB Red,[2]; 17 days,12.4 µg/mL
same,Stability of Vitamin Es in AB Red,[2]; 18 days,11.9 µg/mL
same,Stability of Vitamin Es in AB Red,[2]; 19 days,11.7 µg/mL
same,Stability of Vitamin Es in AB Red,[2]; 22 days,11.9 µg/mL
same,Stability of Vitamin Es in AB Red,[2]; 23 days,12.0 µg/mL
same,Stability of Vitamin Es in AB Red,[2]; 24 days,12.2 µg/mL
same,Stability of Vitamin Es in AB Red,[2]; 25 days,12.0 µg/mL
